Measured values from ChEMBL document CHEMBL3797105, “Investigation of triazole-linked indole and oxindole glycoconjugates as potential anticancer agents: novel Akt/PKB signaling pathway inhibitors” (Medchemcomm, 2016).

Tested on: not listed separately
Assay: Cytotoxicity against human DU145 cells after 48 hrs by sulforhodamine B assay
Type: functional, cell-based
Settings: DU-145, 48 h

Compared with `CC(=O)OC[C@H]1O[C@@H](n2cc(CN3C(=O)/C(=C\c4ccc5ccccc5c4)c4ccccc43)nn2)[C@H](OC(C)=O)[C@@H](OC(C)=O)[C@@H]1OC(C)=O`, `CC(=O)OC[C@H]1O[C@@H](n2cc(CN3C(=O)/C(=C\c4ccccc4)c4ccccc43)nn2)[C@H](OC(C)=O)[C@@H](OC(C)=O)[C@@H]1OC(C)=O` is lower in IC50: over 100 µM for the first, 24.1 µM for the second. The second is the more potent here.

First: CCC/C=C1\C(=O)N(Cc2cn([C@@H]3O[C@H](COC(C)=O)[C@@H](OC(C)=O)[C@H](OC(C)=O)[C@H]3OC(C)=O)nn2)c2ccccc21
Second: CC(=O)OC[C@H]1O[C@@H](n2cc(CN3C(=O)/C(=C/c4ccccn4)c4ccccc43)nn2)[C@H](OC(C)=O)[C@@H](OC(C)=O)[C@@H]1OC(C)=O
The IC50 of the first is 1.8-fold lower: 26.6 µM for the first, 48.3 µM for the second.

Going from `Cc1ccc(/C=C2/C(=O)Nc3ccccc32)cc1` to `CC(=O)OC[C@H]1O[C@@H](n2cc(Cn3cc(/C=C4/C(=O)Nc5ccc(F)cc54)c4ccccc43)nn2)[C@H](OC(C)=O)[C@@H](OC(C)=O)[C@@H]1OC(C)=O`, the IC50 falls from over 100 µM to 87.4 µM. The second is the more potent here.

First: COc1cccc2c1C(=O)c1c(O)c3c(c(O)c1C2=O)C[C@@](O)(C(=O)CO)C[C@@H]3O[C@H]1C[C@H](N)[C@H](O)[C@H](C)O1 [DOXORUBICIN]
Second: CC(=O)OC[C@H]1O[C@@H](OC(C)=O)[C@H](OC(C)=O)[C@@H](OC(C)=O)[C@@H]1OC(C)=O
The IC50 of the first is lower: 5.4 µM for the first, over 200 µM for the second. The first is the more potent here.

Tested on: A549
Assay: Cytotoxicity against human A549 cells after 48 hrs by sulforhodamine B assay
Type: functional, cell-based
Settings: A549, 48 h

Compared with `CC(=O)OC[C@H]1O[C@@H](n2cc(CN3C(=O)/C(=C\c4ccc5ccccc5c4)c4ccccc43)nn2)[C@H](OC(C)=O)[C@@H](OC(C)=O)[C@@H]1OC(C)=O`, `CC(=O)OC[C@H]1O[C@@H](n2cc(CN3C(=O)/C(=C\c4ccccc4)c4ccccc43)nn2)[C@H](OC(C)=O)[C@@H](OC(C)=O)[C@@H]1OC(C)=O` is 3.5-fold lower in IC50: 62.2 µM for the first, 17.9 µM for the second.

Going from `CCC/C=C1\C(=O)N(Cc2cn([C@@H]3O[C@H](COC(C)=O)[C@@H](OC(C)=O)[C@H](OC(C)=O)[C@H]3OC(C)=O)nn2)c2ccccc21` to `CC(=O)OC[C@H]1O[C@@H](n2cc(CN3C(=O)/C(=C/c4ccccn4)c4ccccc43)nn2)[C@H](OC(C)=O)[C@@H](OC(C)=O)[C@@H]1OC(C)=O`, the IC50 falls from 40.4 µM to 26.1 µM (1.5-fold). The second is the more potent here.

Compared with `Cc1ccc(/C=C2/C(=O)Nc3ccccc32)cc1`, `CC(=O)OC[C@H]1O[C@@H](n2cc(Cn3cc(/C=C4/C(=O)Nc5ccc(F)cc54)c4ccccc43)nn2)[C@H](OC(C)=O)[C@@H](OC(C)=O)[C@@H]1OC(C)=O` is lower in IC50: over 100 µM for the first, 36.9 µM for the second.

For `CC(=O)OC[C@H]1O[C@@H](OC(C)=O)[C@H](OC(C)=O)[C@@H](OC(C)=O)[C@@H]1OC(C)=O`, the IC50 was over 200 µM.

Tested on: MCF7
Assay: Cytotoxicity against human MCF7 cells after 48 hrs by sulforhodamine B assay
Type: functional, cell-based
Settings: MCF7, 48 h

Going from `CC(=O)OC[C@H]1O[C@@H](n2cc(CN3C(=O)/C(=C\c4ccc5ccccc5c4)c4ccccc43)nn2)[C@H](OC(C)=O)[C@@H](OC(C)=O)[C@@H]1OC(C)=O` to `CC(=O)OC[C@H]1O[C@@H](n2cc(CN3C(=O)/C(=C\c4ccccc4)c4ccccc43)nn2)[C@H](OC(C)=O)[C@@H](OC(C)=O)[C@@H]1OC(C)=O`, the IC50 falls from 46.5 µM to 24.3 µM (1.9-fold). The second is the more potent here.

`CCC/C=C1\C(=O)N(Cc2cn([C@@H]3O[C@H](COC(C)=O)[C@@H](OC(C)=O)[C@H](OC(C)=O)[C@H]3OC(C)=O)nn2)c2ccccc21` and `CC(=O)OC[C@H]1O[C@@H](n2cc(CN3C(=O)/C(=C/c4ccccn4)c4ccccc43)nn2)[C@H](OC(C)=O)[C@@H](OC(C)=O)[C@@H]1OC(C)=O` are within 1.5-fold of each other in IC50: 25 µM for the first, 32.1 µM for the second.

Compared with `Cc1ccc(/C=C2/C(=O)Nc3ccccc32)cc1`, `CC(=O)OC[C@H]1O[C@@H](n2cc(Cn3cc(/C=C4/C(=O)Nc5ccc(F)cc54)c4ccccc43)nn2)[C@H](OC(C)=O)[C@@H](OC(C)=O)[C@@H]1OC(C)=O` is lower in IC50: over 100 µM for the first, 40.4 µM for the second.

Compared with `COc1cccc2c1C(=O)c1c(O)c3c(c(O)c1C2=O)C[C@@](O)(C(=O)CO)C[C@@H]3O[C@H]1C[C@H](N)[C@H](O)[C@H](C)O1` [DOXORUBICIN], `CC(=O)OC[C@H]1O[C@@H](OC(C)=O)[C@H](OC(C)=O)[C@@H](OC(C)=O)[C@@H]1OC(C)=O` is higher in IC50: 6.1 µM for the first, over 200 µM for the second. The first is the more potent here.

Tested on: not listed separately
Assay: Cytotoxicity against mouse NIH/3T3 cells after 48 hrs by sulforhodamine B assay
Settings: NIH3T3, 48 h

First: CC(=O)OC[C@H]1O[C@@H](n2cc(CN3C(=O)/C(=C\c4ccc5ccccc5c4)c4ccccc43)nn2)[C@H](OC(C)=O)[C@@H](OC(C)=O)[C@@H]1OC(C)=O
Second: CC(=O)OC[C@H]1O[C@@H](n2cc(CN3C(=O)/C(=C\c4ccccc4)c4ccccc43)nn2)[C@H](OC(C)=O)[C@@H](OC(C)=O)[C@@H]1OC(C)=O
The IC50 of the first is 3.5-fold higher: 80 µM for the first, 22.8 µM for the second.

`CCC/C=C1\C(=O)N(Cc2cn([C@@H]3O[C@H](COC(C)=O)[C@@H](OC(C)=O)[C@H](OC(C)=O)[C@H]3OC(C)=O)nn2)c2ccccc21` and `CC(=O)OC[C@H]1O[C@@H](n2cc(CN3C(=O)/C(=C/c4ccccn4)c4ccccc43)nn2)[C@H](OC(C)=O)[C@@H](OC(C)=O)[C@@H]1OC(C)=O` cannot be ordered by IC50: over 100 µM for the first, over 100 µM for the second.

First: Cc1ccc(/C=C2/C(=O)Nc3ccccc32)cc1
Second: CC(=O)OC[C@H]1O[C@@H](n2cc(Cn3cc(/C=C4/C(=O)Nc5ccc(F)cc54)c4ccccc43)nn2)[C@H](OC(C)=O)[C@@H](OC(C)=O)[C@@H]1OC(C)=O
The IC50 of the first is higher: over 100 µM for the first, 62.5 µM for the second. The second is the more potent here.

Compared with `COc1cccc2c1C(=O)c1c(O)c3c(c(O)c1C2=O)C[C@@](O)(C(=O)CO)C[C@@H]3O[C@H]1C[C@H](N)[C@H](O)[C@H](C)O1` [DOXORUBICIN], `CC(=O)OC[C@H]1O[C@@H](OC(C)=O)[C@H](OC(C)=O)[C@@H](OC(C)=O)[C@@H]1OC(C)=O` is higher in IC50: 10.1 µM for the first, over 200 µM for the second.

Tested on: HeLa
Assay: Cytotoxicity against human HeLa cells after 48 hrs by sulforhodamine B assay
Type: functional, cell-based
Settings: not given

First: CC(=O)OC[C@H]1O[C@@H](n2cc(CN3C(=O)/C(=C\c4ccc5ccccc5c4)c4ccccc43)nn2)[C@H](OC(C)=O)[C@@H](OC(C)=O)[C@@H]1OC(C)=O
Second: CC(=O)OC[C@H]1O[C@@H](n2cc(CN3C(=O)/C(=C\c4ccccc4)c4ccccc43)nn2)[C@H](OC(C)=O)[C@@H](OC(C)=O)[C@@H]1OC(C)=O
The IC50 of the first is higher: over 100 µM for the first, 33.3 µM for the second. The second is the more potent here.

`CCC/C=C1\C(=O)N(Cc2cn([C@@H]3O[C@H](COC(C)=O)[C@@H](OC(C)=O)[C@H](OC(C)=O)[C@H]3OC(C)=O)nn2)c2ccccc21` and `CC(=O)OC[C@H]1O[C@@H](n2cc(CN3C(=O)/C(=C/c4ccccn4)c4ccccc43)nn2)[C@H](OC(C)=O)[C@@H](OC(C)=O)[C@@H]1OC(C)=O` are within 1.5-fold of each other in IC50: 46.3 µM for the first, 51.7 µM for the second.

`Cc1ccc(/C=C2/C(=O)Nc3ccccc32)cc1` and `CC(=O)OC[C@H]1O[C@@H](n2cc(Cn3cc(/C=C4/C(=O)Nc5ccc(F)cc54)c4ccccc43)nn2)[C@H](OC(C)=O)[C@@H](OC(C)=O)[C@@H]1OC(C)=O` cannot be ordered by IC50: over 100 µM for the first, over 200 µM for the second.

Going from `COc1cccc2c1C(=O)c1c(O)c3c(c(O)c1C2=O)C[C@@](O)(C(=O)CO)C[C@@H]3O[C@H]1C[C@H](N)[C@H](O)[C@H](C)O1` [DOXORUBICIN] to `CC(=O)OC[C@H]1O[C@@H](OC(C)=O)[C@H](OC(C)=O)[C@@H](OC(C)=O)[C@@H]1OC(C)=O`, the IC50 rises from 7.2 µM to over 200 µM.
